Reference: PMC8512560, “Design, Synthesis, and Antipoliferative Activities of Novel Substituted Imidazole-Thione Linked Benzotriazole Derivatives” (Molecules, 2021)
“And” between values parts separate entries of the source, which are not always exact repeats. Identical values can stand only once.

What was measured:
[1] = tested on: MCF-7 human breast cancer cell line; test: MTT viability assay, MCF-7; type: cell-based; conditions: Homo sapiens, MCF7, 72 h, mean ± SD of three independent experiments, read-out: Antiproliferative Activities IC50, MCF-7
Experimental: (§1) All the human tumour cell lines MCF-7, HL-60, HCT-116, and HUVEC were cultured in Dulbecco’s Modified Eagle’s Medium (DMEM) with 10% fetal bovine serum, 2 mM L-glutamine and 100 µg/mL penicillin/streptomycin. Cells were maintained at 37 °C in 5% CO2 in a humidified incubator. All cells were sub-cultured three times/week by trypsinization using TrypLE Express (1X).
(§2) The Benzotriazole compounds were evaluated for antiproliferative effect using the MTT viability assay of various cancer cell lines (MCF-7, HCT-116 and HL-60) and the normal human umbilical vein endothelial cell line (HUVEC) to calculate the relative IC50 values for each compound. Cells were seeded in triplicate in 96-well plates at a density of 10 × 10^3 cells/mL in a total volume of 200 µL per well. 0.1% of DMSO was used as a vehicle control. After this time, they were treated with 2 µL test compound which had been pre-prepared as stock solutions in ethanol to furnish the concentration range of study, 10 nM to 100 µM, and re-incubated for a further 72 h. The culture medium was then removed, and the cells washed with 100 µL phosphate buffered saline (PBS) and 50 µL MTT added, to reach a final concentration of 1 mg/mL MTT added. Cells were incubated for 2 h in darkness at 37 °C. At this point solubilisation was begun through the addition of […] DMSO and the cells maintained at room temperature in darkness for 20 min to ensure thorough colour diffusion before reading the absorbance. Plates were incubated for 72 h at 37 °C + 5% CO2. The MTT (5 mg/mL in PBS) was added and incubated for another 4 h, and the optical density was detected with a microplate reader at 570 nm. Results were expressed as percentage viability relative to vehicle control (100%). Dose response curves were plotted and IC50 values (concentration of drug resulting in 50% reduction in cell survival) were obtained using the commercial software package Prism (GraphPad Software, Inc., La Jolla, CA, USA). All the experiments were repeated in at least three independent experiments.

[2] = tested on: HL-60 human leukemia cancer cell line; test: MTT viability assay, HL-60; type: cell-based; conditions: Homo sapiens, HL-60, 72 h, mean ± SD of three independent experiments, read-out: Antiproliferative Activities IC50, HL-60
Experimental: as §1, §2

[3] = tested on: HCT-116 human colon cancer cell line; test: MTT viability assay, HCT-116; type: cell-based; conditions: Homo sapiens, HCT-116, 72 h, mean ± SD of three independent experiments, read-out: Antiproliferative Activities IC50, HCT-116
Experimental: as §1, §2

[4] = tested on: HUVEC human umbilical vein endothelial cell line; test: MTT viability assay, normal HUVEC cells; type: cell-based; conditions: 72 h, mean ± SD of three independent experiments
Experimental: as §1, §2

[5] = tested on: colchicine binding site of tubulin; test: Colchicine site competitive binding assay ([3H]colchicine); conditions: tubulin and colchicine at 1 and 5 µM
Experimental: The affinity of Benzotriazole compounds to colchicine binding site was determined using a Colchicine Site Competitive Assay kit CytoDYNAMIX Screen15 (Cytoskeleton, Inc., Denver, CO, USA) using the standard protocol of the manufacturer to determine Ki values (μM). Biotin-labelled tubulin ([…]) and the test compounds (positive control colchicine, negative control vinblastine, G-1, fluorescent G-1, or 2-ME) in a 96-well plate (final volume: 100 μL). After incubating for 2 h at 37 °C with gentle shaking, streptavidin-labelled yttrium SPA beads (80 μg in 20 μL reaction buffer, PerkinElmer, Waltham, MA) were added to each well and incubated for 30 min at 4 °C. The plates were then read on a scintillation counter (Packard Instrument, Topcount Microplate Reader) and the percentage of inhibition was calculated.

HL-60 cells = test: Cell cycle analysis by PI flow cytometry; type: cell-based, human; conditions: 1 µM
Experimental: HL-60 cells were seeded at a density of 1 × 10^5 cells/well in 6-well plates and treated with CA-4 and compound BI9 (1 µM) for 48 and 72 h. The cells were collected by trypsinization and centrifuged at 800× g for 15 min. Cells were washed twice with ice-cold PBS and fixed in ice-cold 70% ethanol overnight at −20 °C. Fixed cells were centrifuged at 800× g for 15 min and stained with 50 μg/mL of PI, containing 50 μg/mL of DNase-free RNase A, at 37 °C for 30 min. The DNA content of cells (10,000 cells/experimental group) was analysed by flow cytometer at 488 nm using a FACSCalibur flow cytometer (BD Biosciences, San Jose, CA, USA) and all data were recorded and analysed using the CellQuest Software (Becton-Dickinson).

BAX = test: Western blot of BAX expression in HL-60 cells; type: cell-based, human; conditions: HL-60, 0.5 and 1 µM, compared to the untreated group
Experimental: HL-60 cells were seeded at a density of 1 × 10^5 cells/flask in T25 flasks. […] HL-60 cells were harvested in RIPA buffer supplemented with protease inhibitors (Roche Diagnostics), phosphatase inhibitor cocktail 2 (Sigma-Aldrich), and phosphatase inhibitor cocktail 3 (Sigma-Aldrich). Equal quantities of protein (as determined by a BCA assay) were resolved by SDS-PAGE (12%) followed by transfer to PVDF membranes. Membranes were blocked in 5% bovine serum albumin/TBST for 1 h. Membranes were incubated in the relevant primary antibodies at 4 °C overnight, washed with TBST, and incubated in horseradish peroxidase conjugated secondary antibody for 1 h at rt and washed again. Western blot analysis was performed as described above using antibodies directed against BAX [1:1000] (Cell Signaling Technology), PARP [1:500] (Cell Signaling Technology) and Bcl-2 [1:500] (Cell Signaling Technology) followed by incubation with a horseradish peroxidase-conjugated anti-mouse antibody [1:2000] (Promega, Madison, WI, USA). All blots were probed with β-actin antibody [1:5000] (Sigma) to confirm equal loading. Proteins were detected using enhanced chemiluminescent Western blot detection (Clarity Western ECL substrate) (Bio Rad) on the ChemiDoc MP System (Bio Rad). Experiments were performed on three independent occasions.

IC50 [1]: 3.57 ± 0.16 µM
IC50 [2]: 0.4 ± 0.03 µM
IC50 [3]: 2.63 ± 0.17 µM
Colchicine Binding % ± SD (inhibition of [3H]colchicine binding), 1 µM Drug ([5]; 1 µM drug): 49% and 49.38 ± 2%
Colchicine Binding % ± SD (inhibition of [3H]colchicine binding), 5 µM Drug ([5]; 5 µM drug): 66% and 66.57 ± 2%
Structure (SMILES): S=c1[nH]c(-n2nnc3ccccc32)cn1-c1ccc(Cl)cc1Cl [BI9, 4-(1H-Benzo[d][1,2,3]Triazol-1-yl)-1-(2,4-Dichlorophenyl)-1H-Imidazole-2(3H)-Thione]
IC50 [4]: > 100 µM
Proportion of HL-60 cells in G2/M phase (HL-60 cells; 48 h): 32.3%
Population in the sub-G1 phase (apoptosis) (HL-60 cells; 48 h, untreated cells 1.5%): 23.1%
Proportion of HL-60 cells in G2/M phase (HL-60 cells; 72 h): 35.1%
Population in the sub-G1 phase (apoptosis) (HL-60 cells; 72 h, untreated cells 3.5%): 27.5%
Expression level of pro-apoptotic Bax protein (BAX): significantly up-regulated
